Reference: ChEMBL document CHEMBL5046263, “Characterization of the Aminosugar Biosynthetic and Regulatory Genes of Vicenistatin in Monodonata labio-Associated Streptomyces parvus SCSIO Mla-L010” (J Nat Prod, 2022)
In brackets after ≈: the same amount, converted by molar mass.

Assays:
Staphylococcus aureus [1] = experiment: Antibacterial activity against methicillin-resistant Staphylococcus aureus 16162 assessed as bacterial growth inhibition; type: functional
A549 = experiment: Cytotoxicity against human A549 cells assessed as reduction in cell viability by after 72 hrs MTT assay; type: functional, cell-based; settings: A549, 72 h
[2] = Cytotoxicity against human L02 cells assessed as reduction in cell viability after 72 hrs by MTT assay; type: toxicity, cell-based
Staphylococcus aureus [3] = experiment: Antibacterial activity against methicillin-resistant Staphylococcus aureus 6917 assessed as bacterial growth inhibition; type: functional
MCF7 = experiment: Cytotoxicity against human MCF7 cells assessed as reduction in cell viability after 72 hrs by MTT assay; type: functional, cell-based; settings: MCF7, 72 h
HL-60 = experiment: Cytotoxicity against human HL-60 cells assessed as reduction in cell viability after 72 hrs by MTT assay; type: functional, cell-based; settings: HL-60, 72 h
Bacillus subtilis = experiment: Antibacterial activity against Bacillus subtilis BS01 assessed as bacterial growth inhibition; type: functional
Staphylococcus aureus [4] = experiment: Antibacterial activity against methicillin-resistant Staphylococcus aureus 745524 assessed as bacterial growth inhibition; type: functional
[5] = Cytotoxicity against human BEAS-2B cells assessed as reduction in cell viability after 72 hrs by MTT assay; type: toxicity, cell-based
RKO = experiment: Cytotoxicity against human RKO cells assessed as reduction in cell viability after 72 hrs by MTT assay; type: functional, cell-based
Staphylococcus aureus [6] = experiment: Antibacterial activity against methicillin-resistant Staphylococcus aureus 718306 assessed as bacterial growth inhibition; type: functional
Helicobacter pylori [7] = experiment: Antibacterial activity against Helicobacter pylori 159 assessed as bacterial growth inhibition; type: functional
Candida albicans [8] = experiment: Antifungal activity against Candida albicans ATCC SC5314 assessed as fungal growth inhibition; type: functional
Micrococcus luteus = experiment: Antibacterial activity against Micrococcus luteus ML01 assessed as bacterial growth inhibition; type: functional
Staphylococcus aureus [9] = experiment: Antibacterial activity against methicillin-resistant Staphylococcus aureus 16339 assessed as bacterial growth inhibition; type: functional
Candida albicans [10] = experiment: Antifungal activity against Candida albicans C5 assessed as fungal growth inhibition; type: functional
Cryptococcus neoformans = experiment: Antifungal activity against Cryptococcus neoformans ATCC4906 assessed as fungal growth inhibition; type: functional
HeLa = experiment: Cytotoxicity against human HeLa cells assessed as reduction in cell viability after 72 hrs by MTT assay; type: functional, cell-based
Helicobacter pylori [11] = experiment: Antibacterial activity against Helicobacter pylori G27 assessed as bacterial growth inhibition; type: functional
Staphylococcus aureus [12] = experiment: Antibacterial activity against Staphylococcus aureus ATCC 29213 assessed as bacterial growth inhibition; type: functional
Staphylococcus aureus [13] = experiment: Antibacterial activity against methicillin-resistant Staphylococcus aureus shhs-E1 assessed as bacterial growth inhibition; type: functional
HepG2 = experiment: Cytotoxicity against human HepG2 cells assessed as reduction in cell viability after 72 hrs by MTT assay; type: functional, cell-based; settings: HepG2, 72 h
[14] = test system: Mycolicibacterium smegmatis; experiment: Antibacterial activity against Mycobacterium smegmatis ATCC607 assessed as bacterial growth inhibition; type: functional

| SMILES | MIC (Staphylococcus aureus [1]) | IC50 (A549) | IC50 at 72 h [2] | MIC (Staphylococcus aureus [3]) | IC50 (MCF7) | IC50 (HL-60) | MIC (Bacillus subtilis) | MIC (Staphylococcus aureus [4]) | IC50 at 72 h [5] | IC50 (RKO) | MIC (Staphylococcus aureus [6]) | MIC (Helicobacter pylori [7]) | MIC (Candida albicans [8]) | MIC (Micrococcus luteus) | MIC (Staphylococcus aureus [9]) | MIC (Candida albicans [10]) | MIC (Cryptococcus neoformans) | IC50 (HeLa) | MIC (Helicobacter pylori [11]) | MIC [14] | also measured |
| --- | --- | --- | --- | --- | --- | --- | --- | --- | --- | --- | --- | --- | --- | --- | --- | --- | --- | --- | --- | --- | --- |
| C/C1=C\C=C\CC[C@H](C)CNC(=O)/C=C/C=C/[C@H](C)[C@@H](O[C@H]2C[C@H](O)[C@H](N)[C@@H](C)O2)C/C=C(\C)C1 | 0.25 mg/L (≈ 0.514 µM) | 1.33 µM | 5.36 µM | 0.13 mg/L (≈ 0.267 µM) | 1.16 µM | 0.89 µM | 0.5 mg/L (≈ 1.03 µM) | 0.25 mg/L (≈ 0.514 µM) | 3.23 µM | 2.1 µM | 0.25 mg/L (≈ 0.514 µM) | 1 mg/L (≈ 2.05 µM) | 1 mg/L (≈ 2.05 µM) | 0.25 mg/L (≈ 0.514 µM) | 0.5 mg/L (≈ 1.03 µM) | 2 mg/L (≈ 4.11 µM) | 2 mg/L (≈ 4.11 µM) | 1.29 µM | 1 mg/L (≈ 2.05 µM) | 4 mg/L (≈ 8.22 µM) | MIC (Staphylococcus aureus [12]): 0.13 mg/L (≈ 0.267 µM); MIC (Staphylococcus aureus [13]): 0.25 mg/L (≈ 0.514 µM); IC50 (HepG2): 2.09 µM |
| C[C@@H]1[C@H](O)[C@@H](C)/C=C/C=C/C=C/C=C/C=C/C=C/C=C/[C@H](O[C@@H]2O[C@H](C)[C@@H](O)[C@H](N)[C@@H]2O)C[C@@H]2O[C@](O)(C[C@@H](O)C[C@@H](O)[C@H](O)CC[C@@H](O)C[C@@H](O)CC(=O)O[C@H]1C)C[C@H](O)[C@H]2C(=O)O [AMPHOTERICIN B] |  |  |  |  |  |  |  |  |  |  |  |  | 1 mg/L (≈ 1.08 µM) |  |  | 1 mg/L (≈ 1.08 µM) | 2 mg/L (≈ 2.16 µM) |  |  |  |  |
| CC1(C)S[C@@H]2[C@H](NC(=O)[C@H](N)c3ccccc3)C(=O)N2[C@H]1C(=O)O [AMPICILLIN] |  |  |  |  |  |  |  |  |  |  |  | 4 mg/L (≈ 11.4 µM) |  |  |  |  |  |  | 4 mg/L (≈ 11.4 µM) | 64 mg/L (≈ 183 µM) |  |
| CN[C@H](CC(C)C)C(=O)N[C@H]1C(=O)N[C@@H](CC(N)=O)C(=O)N[C@H]2C(=O)N[C@H]3C(=O)N[C@H](C(=O)N[C@H](C(=O)O)c4cc(O)cc(O)c4-c4cc3ccc4O)[C@H](O)c3ccc(c(Cl)c3)Oc3cc2cc(c3O[C@@H]2O[C@H](CO)[C@@H](O)[C@H](O)[C@H]2O[C@H]2C[C@](C)(N)[C@H](O)[C@H](C)O2)Oc2ccc(cc2Cl)[C@H]1O [VANCOMYCIN] |  |  |  |  |  |  | 0.13 mg/L (≈ 0.0897 µM) |  |  |  | 0.25 mg/L (≈ 0.173 µM) |  |  | 0.13 mg/L (≈ 0.0897 µM) |  |  |  |  |  |  |  |
| CN[C@H]1[C@@H](O)C[C@H](O[C@H]2C/C=C(\C)C/C(C)=C/C=C/CC[C@H](C)CNC(=O)/C=C/C=C/[C@@H]2C)O[C@@H]1C [VICENISTATIN] | 0.13 mg/L (≈ 0.26 µM) | 0.76 µM | 0.89 µM | 0.06 mg/L (≈ 0.12 µM) | 0.8 µM | 0.64 µM | 0.13 mg/L (≈ 0.26 µM) | 0.06 mg/L (≈ 0.12 µM) | 1.4 µM | 2.33 µM | 0.13 mg/L (≈ 0.26 µM) | 1 mg/L (≈ 2 µM) | 4 mg/L (≈ 7.99 µM) | 0.06 mg/L (≈ 0.12 µM) | 0.06 mg/L (≈ 0.12 µM) | 4 mg/L (≈ 7.99 µM) | 2 mg/L (≈ 3.99 µM) | 1.38 µM | 1 mg/L (≈ 2 µM) | > 64 mg/L | MIC (Staphylococcus aureus [12]): 0.06 mg/L (≈ 0.12 µM); MIC (Staphylococcus aureus [13]): 0.13 mg/L (≈ 0.26 µM); IC50 (HepG2): 2.01 µM |
